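Here, GI50 denotes the concentration required for 50% inhibition of growth. TGI: concentration producing complete growth inhibition.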
How the values were obtained:
Assay in all cases: inhibition of tumour cell growth, NCI panel, 384-well format
786-0 renal = tested on: 786-0 renal
A498 renal = tested on: A498 renal
A549 NSCLC = tested on: A549 NSCLC
ACHN renal = tested on: ACHN renal
BT-549 breast = tested on: BT-549 breast
CAKI-1 renal = tested on: CAKI-1 renal
CCRF-CEM leukemia = tested on: CCRF-CEM leukemia
COLO 205 colon = tested on: COLO 205 colon
DU-145 prostate = tested on: DU-145 prostate
HCC-2998 colon = tested on: HCC-2998 colon
HCT-116 colon = tested on: HCT-116 colon
HCT-15 colon = tested on: HCT-15 colon
HL-60(TB) leukemia = tested on: HL-60(TB) leukemia
HOP-62 NSCLC = tested on: HOP-62 NSCLC
HOP-92 NSCLC = tested on: HOP-92 NSCLC
HT29 colon = tested on: HT29 colon
IGROV1 ovarian = tested on: IGROV1 ovarian
K-562 leukemia = tested on: K-562 leukemia
KM12 colon = tested on: KM12 colon
LOX IMVI melanoma = tested on: LOX IMVI melanoma
M14 melanoma = tested on: M14 melanoma
MALME-3M melanoma = tested on: MALME-3M melanoma
MCF7 breast = tested on: MCF7 breast
MDA-MB-231 breast = tested on: MDA-MB-231 breast
MDA-MB-435 melanoma = tested on: MDA-MB-435 melanoma
MDA-MB-468 breast = tested on: MDA-MB-468 breast
MOLT-4 leukemia = tested on: MOLT-4 leukemia
NCI-H226 lung = tested on: NCI-H226 lung
NCI-H23 lung = tested on: NCI-H23 lung
NCI-H322M lung = tested on: NCI-H322M lung
NCI-H460 NSCLC = tested on: NCI-H460 NSCLC
NCI-H522 lung = tested on: NCI-H522 lung
NCI/ADR-RES ovarian = tested on: NCI/ADR-RES ovarian
OVCAR-3 ovarian = tested on: OVCAR-3 ovarian
OVCAR-4 ovarian = tested on: OVCAR-4 ovarian
OVCAR-5 ovarian = tested on: OVCAR-5 ovarian
OVCAR-8 ovarian = tested on: OVCAR-8 ovarian
PC-3 prostate = tested on: PC-3 prostate
RPMI-8226 leukemia = tested on: RPMI-8226 leukemia
RXF 393 renal = tested on: RXF 393 renal
SF-268 CNS = tested on: SF-268 CNS
SF-295 CNS = tested on: SF-295 CNS
SF-539 CNS = tested on: SF-539 CNS
SK-MEL-2 melanoma = tested on: SK-MEL-2 melanoma
SK-MEL-28 melanoma = tested on: SK-MEL-28 melanoma
SK-MEL-5 melanoma = tested on: SK-MEL-5 melanoma
SK-OV-3 ovarian = tested on: SK-OV-3 ovarian
SN12C renal = tested on: SN12C renal
SNB-19 CNS = tested on: SNB-19 CNS
SR leukemia = tested on: SR leukemia
SW-620 colon = tested on: SW-620 colon
T-47D breast = tested on: T-47D breast
TK-10 renal = tested on: TK-10 renal
U251 glioblastoma = tested on: U251 glioblastoma
UACC-257 melanoma = tested on: UACC-257 melanoma
UACC-62 melanoma = tested on: UACC-62 melanoma
UO-31 renal = tested on: UO-31 renal

COc1cc2c(Oc3ccc(NC(=O)C4(C(=O)Nc5ccc(F)cc5)CC4)cc3F)ccnc2cc1OCCCN1CCOCC1
GI50 ([…]-0 renal): 1190 nM | TGI (786-0 renal): 2420 nM | GI50 (A498 renal): 838 nM | TGI (A498 renal): 2080 nM | GI50 (A549 NSCLC): 329 nM | TGI (A549 NSCLC): 1170 nM | GI50 (ACHN renal): 205 nM | TGI (ACHN renal): 718 nM | GI50 (BT-549 breast): 440 nM | TGI (BT-549 breast): 1510 nM | GI50 (CAKI-1 renal): 183 nM | TGI (CAKI-1 renal): 584 nM | GI50 (CCRF-CEM leukemia): 52.8 nM | TGI (CCRF-CEM leukemia): 189 nM | GI50 (COLO 205 colon): 211 nM | TGI (COLO 205 colon): 460 nM | GI50 (DU-145 prostate): 1160 nM | TGI (DU-145 prostate): 2390 nM | GI50 (HCC-2998 colon): 1110 nM | TGI (HCC-2998 colon): 2320 nM | GI50 (HCT-116 colon): 379 nM | TGI (HCT-116 colon): 1570 nM | GI50 (HCT-15 colon): 419 nM | TGI (HCT-15 colon): 1590 nM | GI50 (HL-60(TB) leukemia): 194 nM | TGI (HL-60(TB) leukemia): 387 nM | GI50 (HOP-62 NSCLC): 668 nM | TGI (HOP-62 NSCLC): 1930 nM | GI50 (HOP-92 NSCLC): 107 nM | TGI (HOP-92 NSCLC): 421 nM | GI50 (HT29 colon): 324 nM | TGI (HT29 colon): 1220 nM | GI50 (IGROV1 ovarian): 275 nM | TGI (IGROV1 ovarian): 990 nM | GI50 (K-562 leukemia): 40.3 nM | TGI (K-562 leukemia): 143 nM | TGI (KM12 colon): 931 nM | GI50 (LOX IMVI melanoma): 386 nM | TGI (LOX IMVI melanoma): 945 nM | GI50 (M14 melanoma): 293 nM | TGI (M14 melanoma): 882 nM | GI50 (MALME-3M melanoma): 185 nM | TGI (MALME-3M melanoma): 541 nM | GI50 (MCF7 breast): 331 nM | TGI (MCF7 breast): 1440 nM | GI50 (MDA-MB-231 breast): 361 nM | TGI (MDA-MB-231 breast): 1660 nM | GI50 (MDA-MB-435 melanoma): 331 nM | TGI (MDA-MB-435 melanoma): 1200 nM | GI50 (MDA-MB-468 breast): 270 nM | TGI (MDA-MB-468 breast): 547 nM | GI50 (MOLT-4 leukemia): 42.5 nM | TGI (MOLT-4 leukemia): 137 nM | GI50 (NCI-H226 lung): 276 nM | TGI (NCI-H226 lung): 966 nM | GI50 (NCI-H23 lung): 46.3 nM | TGI (NCI-H23 lung): 642 nM | GI50 (NCI-H322M lung): 866 nM | TGI (NCI-H322M lung): 2100 nM | GI50 (NCI-H460 NSCLC): 219 nM | TGI (NCI-H460 NSCLC): 1130 nM | GI50 (NCI-H522 lung): 211 nM | TGI (NCI-H522 lung): 817 nM | GI50 (NCI/ADR-RES ovarian): 436 nM | TGI (NCI/ADR-RES ovarian): 1600 nM | GI50 (OVCAR-3 ovarian): 554 nM | TGI (OVCAR-3 ovarian): 1780 nM | GI50 (OVCAR-4 ovarian): 409 nM | TGI (OVCAR-4 ovarian): 1770 nM | GI50 (OVCAR-5 ovarian): 911 nM | TGI (OVCAR-5 ovarian): 2120 nM | GI50 (OVCAR-8 ovarian): 1190 nM | TGI (OVCAR-8 ovarian): 2430 nM | GI50 (PC-3 prostate): 1300 nM | TGI (PC-3 prostate): 2580 nM | GI50 (RPMI-8226 leukemia): 202 nM | TGI (RPMI-8226 leukemia): 492 nM | GI50 (RXF 393 renal): 158 nM | TGI (RXF 393 renal): 548 nM | GI50 (SF-268 CNS): 781 nM | TGI (SF-268 CNS): 2020 nM | GI50 (SF-295 CNS): 94 nM | TGI (SF-295 CNS): 1510 nM | GI50 (SF-539 CNS): 135 nM | TGI (SF-539 CNS): 489 nM | GI50 (SK-MEL-2 melanoma): 300 nM | TGI (SK-MEL-2 melanoma): 1240 nM | GI50 (SK-MEL-28 melanoma): 361 nM | TGI (SK-MEL-28 melanoma): 1430 nM | GI50 (SK-MEL-5 melanoma): 333 nM | TGI (SK-MEL-5 melanoma): 1460 nM | GI50 (SK-OV-3 ovarian): 522 nM | TGI (SK-OV-3 ovarian): 1790 nM | GI50 (SN12C renal): 175 nM | TGI (SN12C renal): 1060 nM | GI50 (SNB-19 CNS): 1180 nM | TGI (SNB-19 CNS): 2410 nM | GI50 (SR leukemia): 131 nM | TGI (SR leukemia): 261 nM | GI50 (SW-620 colon): 201 nM | TGI (SW-620 colon): 747 nM | GI50 (T-47D breast): 1050 nM | TGI (T-47D breast): 2230 nM | GI50 (TK-10 renal): 648 nM | TGI (TK-10 renal): 1910 nM | GI50 (U251 glioblastoma): 1140 nM | TGI (U251 glioblastoma): 2360 nM | GI50 (UACC-257 melanoma): 265 nM | TGI (UACC-257 melanoma): 859 nM | GI50 (UACC-62 melanoma): 369 nM | TGI (UACC-62 melanoma): 1550 nM | GI50 (UO-31 renal): 314 nM | TGI (UO-31 renal): 1110 nM
